The test system of one data set is Rattus rattus (bush rat). The data set can be described thus: Topical administration to live captured bush rats (Example 4 study). The data set is classed as in vivo. As for the experimental part:
Three animals of the species Rattus rattus (also known as the bush rat) were live captured. They were placed in separate enclosures with on demand food and water supplies, and nesting material of dry hay. After 14 days of acclimatization to these conditions, the animals were each treated with a formulation comprising a solution of 33% cholecalciferol (resin form) in the glycol ether, DGMEE. Each animal was given a dose of about 3 ml of the formulation by topical administration to the back of the animal using a calibrated syringe. Each of the animals died within six days of receiving the formulation. The first rat, a male weighing 122 grams, weighed 106 grams at death. The second rat, a female weighing 108 grams, weighed 98 grams at death. The third rat, a male weighing 97 grams, weighed 90 grams at death.

The nature of data set [1]: Cholecalciferol concentration of test solution by normal phase liquid chromatography (stability of formulation). The data set is classed as physicochemical. As for the experimental part:
To confirm the cholecalciferol concentration present and enable accurate exposure calculations when the test solution was applied to the stoats, a sub-sample (approximately 20 ml) of this solution was taken for analysis. Cholecalciferol concentration was determined by taking a sample of liquid which was warmed, mixed and 0.2 g weighed into a volumetric flask 30 ml of toluene was added, and this solution was sonicated without heating and made up to volume. The solution was diluted with hexane/isopropyl alcohol, filtered and analysed against an internal standard by normal phase liquid chromatography.
The test solution was analysed as containing 30% cholecalciferol with an uncertainty of 5%. This was lower than the nominal 40% cholecalciferol in the solution indicated by the analysis carried out the day after the solution was prepared. The assay was carried out on a sub-sample of solution taken 7 days after preparation, and also following the extraction of 6×1.5 ml aliquots of the solution for application to stoats.
This may mostly have occurred on exposure to air when aliquots of solution were drawn from the container for application to the stoats. Cholecalciferol preparations are sensitive to light and exposure to air, with oxidation and inactivation occurring over a few days in the presence of moist air. However, it is noted that even at a 30% concentration, the solution contained sufficient cholecalciferol to deliver an effective lethal dose to all six stoats in 1.5 ml.

The next data set concerns weasels. The data set can be described thus: Proof of concept trial on wild weasels (Example 3 study). The data set is classed as in vivo. An excerpt:
Three wild weasels were caught for a proof of concept trial to determine if the formulation of the invention would be effective as a humane method of killing these pests. The weasels were caged separately in individual waterproof, roofed, wired enclosures of approximately 1 m^2. The animals were fed on raw meat, by simply placing the meat on a wire hooked into the side of the cages. In eating the animals simply pulled on and chewed the meat. Drinking water was available. Within each enclosure was a small box of 25×25 cm with a mesh roof. A vertical sliding door could be removed to provide an entrance to the enclosure and the enclosure was half filled with nesting material of hay. It was observed that the animals covered themselves in the hay and made pathways through it.
Each of the animals was then treated with a formulation comprising 32% cholecalciferol (resin form) in solution with the glycol ether, DGMEE, and observations were made.
The first animal, a male weasel weighing 157 grams, was treated by application of 1 ml of the formulation using a syringe to the back of the animal. This weasel died within 44 hours of application of the formulation.
The second animal, a female weasel weighing 94 grams, was treated using an eradication apparatus as described above. The electronically activated apparatus was placed into the cage of the animal. The apparatus comprised of a tunnel, including a sensing means comprising two pairs of sensors, and a tracking card to record the footprints of the weasel to establish that the animal had passed through the tunnel. An automatic dispensing means was operatively connected to the tunnel, so that when the weasel passed through the tunnel and the two pairs of sensors were covered ,simultaneously, the dispensing , means was automatically activated to deliver the formulation to the animal. In this manner, approximately 0.9 ml of the cholecalciferol formulation was applied to the back of the weasel as it passed through the tunnel of the apparatus. It was observed that some of the formulation was present on the tracking card so the weasel had not received the total volume of the formulation. The weasel died approximately 50 hours after receiving the formulation.
The third animal, a male weasel weighing 54 grams was treated by squirting approximately 1 ml of the formulation onto the back of the animal using a hand held syringe. This weasel died within about 39 hours of application of the formulation.

SMILES strings stand for the structures.

As to `C=C1CC[C@H](O)C/C1=C/C=C1\CCC[C@]2(C)[C@@H]([C@H](C)CCCC(C)C)CC[C@@H]12` [cholecalciferol], the weight at death is 106 grams in the data set with Rattus rattus (bush rat) (first rat, male weighing 122 grams, about 3 ml of 33% cholecalciferol in DGMEE); 98 grams with Rattus rattus (bush rat) (second rat, female weighing 108 grams, about 3 ml of 33% cholecalciferol in DGMEE); 90 grams in the data set on Rattus rattus (bush rat) (third rat, male weighing 97 grams, about 3 ml of 33% cholecalciferol in DGMEE). Also, the “hair loss at application site” value in the data set on Rattus rattus (bush rat) (over the first few days of treatment, about 3 ml of 33% cholecalciferol in DGMEE) is given as “hair loss was observed on all of the animals”. The time to death result was “six” in the data set with Rattus rattus (bush rat) (three bush rats, about 3 ml of 33% cholecalciferol (resin) in DGMEE, topical to the back); “approximately 50 hours” with weasels (female weasel 94 grams, approximately 0.9 ml of 32% cholecalciferol in DGMEE via eradication apparatus, not total volume received); at most 39 h in the data set on weasels (male weasel 54 grams, approximately 1 ml of 32% cholecalciferol in DGMEE by hand held syringe); at most 44 h in the data set on weasels (male weasel 157 grams, 1 ml of 32% cholecalciferol (resin) in DGMEE by syringe to the back). For the same molecule, the “cholecalciferol concentration of test solution (nominal)” value in data set [1] (analysis carried out the day after the solution was prepared, absolute alcohol) was 40%. Besides, the “change of cholecalciferol concentration in test solution” value in data set [1] (during the 7 days from preparation to application) is “slight decline”. In addition, the “cholecalciferol concentration of test solution” value in data set [1] (sub-sample taken 7 days after preparation, after extraction of aliquots, uncertainty of 5%, absolute alcohol) came to 30%. Also, the appetite after application result with weasels (female weasel 94 grams, approximately 0.9 ml of 32% cholecalciferol in DGMEE) is “lost its appetite”. Also, the “food consumption after application” value in the data set with weasels (male weasel 157 grams, 1 ml of 32% cholecalciferol in DGMEE) is “ate only a small quantity of what it had previously been consuming”.

Values taken from patent US20110257135A1, “TOPICAL PESTICIDE FORMULATION” (priority 2008, published 2011).
